{"source": "patent US20230292743A1", "about": "“Method for increasing the lifespan and motility of animal sperm using an inhibitor of Slo3 potassium channel” (IMV TECHNOLOGIES, priority 2017, published 2023)", "system": "bovine sperm", "test": "CASA motility of bovine sperm subpopulation with VCL >150 μm/s, sperm frozen with clofilium", "type": "cell-based", "settings": "bovine sperm frozen with 0.2 μM clofilium, 24 h in capacitation medium with 0.2 μM clofilium, vs control", "protocol": "However, only sperm presenting a sufficient velocity are able to cross the protective layers surrounding the egg and thus are competent for fertilizing eggs. To take this into account, sperm presenting a VCL >150 μm/s were selected and their velocity measured at different time (0 h and 24 h) in control condition or in the presence of clofilium. Sperm were frozen without clofilium (control) and with clofilium prior to test their motility. In the second case, clofilium was present during the sperm incubation period and during the capacitation period. Bovine ejaculate was split into two fractions, and diluted 1:1 in either Optixcell (Fraction 1) or Optixcell containing clofilium 0.2 μM (Fraction 2). After 10 minutes of 34° C. incubation, semen was then diluted to a final concentration of 57 million of spermatozoa/ml in Optixcell (Fraction 1) or Optixcell containing clofilium 0.2 μM (Fraction 2). Diluted semen was frozen as described above and stored in liquid nitrogen until in vitro fertilization. Thus, two types of straws were used: control straws and straws containing clofilium (0.2 μM ). Straws were thawed in a water-bath at 37° C. for 45 s. Each straw was wiped with 70° ethanol before opening. […] Spermatozoa presenting a VCL >150 μm/s were selected and their motility was measured using CASA, performed as above in control condition or in the presence of clofilium. […]"}
{"compound": "CCCCCCC[N+](CC)(CC)CCCCc1ccc(Cl)cc1", "note": "[clofilium]", "values": [{"measurement": "motility (in terms of VCL) of sperm subpopulation with VCL >150 μm/s", "result": "higher mean velocity"}]}
